Data on 12 compounds can be found in PubChem BioAssay (NCI).

Among the test systems are CAKI-1 renal; TK-10 renal; SK-MEL-28 melanoma; COLO 205 colon; ACHN renal; LOX IMVI melanoma; SNB-75 CNS; OVCAR-8 ovarian; HCT-116 colon.
Experiment in all cases: NCI-60 cell line screen, 48 h

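Exposure lasted 48 hours, with cells grown in 96-well plates and compounds tested at five concentrations. Abbreviation: GI50, concentration required for 50% inhibition of growth. TGI: concentration producing complete growth inhibition.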

As for `COc1cc2nncc(Sc3cnnc4ccccc34)c2cc1OC`, the TGI with CAKI-1 renal was > 100 µM; in the experiment with TK-10 renal it was 81.3 µM; in the experiment on SK-MEL-28 melanoma, 60.9 µM; in the experiment on COLO 205 colon, > 100 µM; in the experiment with ACHN renal, 51.9 µM; in the experiment with LOX IMVI melanoma, 63.8 µM.
For `Clc1ccc([O][In]([O]c2ccc(Cl)cn2)[O]c2ccc(Cl)cn2)nc1`, the GI50 with CAKI-1 renal, with TK-10 renal, in the experiment with SNB-75 CNS, in the experiment with SK-MEL-28 melanoma, in the experiment on COLO 205 colon and with OVCAR-8 ovarian was > 100 µM throughout. Besides, the GI50 in the experiment on HCT-116 colon and with LOX IMVI melanoma was > 100 µM in each case. Moreover, the TGI in the experiment with CAKI-1 renal, in the experiment on TK-10 renal, in the experiment with SNB-75 CNS, in the experiment on SK-MEL-28 melanoma, with COLO 205 colon and in the experiment on OVCAR-8 ovarian was > 100 µM each time. Also, the TGI with HCT-116 colon and with LOX IMVI melanoma was > 100 µM each time.
As for `CC(C)N(C(C)C)[PH+]1O[PH+](N(C(C)C)C(C)C)O[PH+](N(C(C)C)C(C)C)O[PH+](N(C(C)C)C(C)C)O[PH+](N(C(C)C)C(C)C)O1.[C-]#[O+].[C-]#[O+].[C-]#[O+].[C-]#[O+].[C-]#[O+].[C-]#[O+].[C-]#[O+].[Cr].[Cr]` (stereo not drawn), the GI50 with CAKI-1 renal was > 100 µM; in the experiment on TK-10 renal, > 100 µM; with SNB-75 CNS, 75.4 µM; in the experiment on SK-MEL-28 melanoma it was > 100 µM; with COLO 205 colon, > 100 µM; with OVCAR-8 ovarian, > 100 µM. In addition, the GI50 in the experiment on ACHN renal, in the experiment on HCT-116 colon and with LOX IMVI melanoma was > 100 µM each time. Also, the TGI in the experiment with CAKI-1 renal, with TK-10 renal, in the experiment on SNB-75 CNS, in the experiment on SK-MEL-28 melanoma, in the experiment with COLO 205 colon and in the experiment on OVCAR-8 ovarian was > 100 µM throughout. Further, the TGI in the experiment on ACHN renal, with HCT-116 colon and with LOX IMVI melanoma was > 100 µM throughout.
As for `Cc1cc(C)c2c(c1)CN1CN2Cc2cc(C)cc(C)c21`, the TGI with CAKI-1 renal was > 100 µM; in the experiment with TK-10 renal, 37.7 µM; in the experiment on SNB-75 CNS, 24.8 µM; in the experiment on SK-MEL-28 melanoma, 44.4 µM; in the experiment on COLO 205 colon, 42.6 µM; in the experiment with OVCAR-8 ovarian, 39.5 µM. Moreover, the TGI with ACHN renal stood at 35.9 µM; in the experiment on HCT-116 colon, 37.2 µM; in the experiment with LOX IMVI melanoma, 30.7 µM.
`CCC1(Br)C(=O)NC(=O)N(C2CC(O)C(CO)O2)C1N=[N+]=[N-]` (stereo not drawn): the TGI in the experiment on CAKI-1 renal, in the experiment on TK-10 renal, with SNB-75 CNS, in the experiment with SK-MEL-28 melanoma, in the experiment with COLO 205 colon and with OVCAR-8 ovarian was > 100 µM each time. Also, the TGI in the experiment on ACHN renal and with LOX IMVI melanoma was > 100 µM each time.
In the case of `COc1ccc([C@H]2CC(=O)N3CCCC3N2)cc1` (stereo partly drawn), the TGI in the experiment with CAKI-1 renal, with TK-10 renal, in the experiment with SNB-75 CNS, in the experiment with SK-MEL-28 melanoma, in the experiment on COLO 205 colon and with OVCAR-8 ovarian was > 100 µM each time. Moreover, the TGI with ACHN renal and with HCT-116 colon was > 100 µM each time.
As for `Fc1cccc(Cl)c1C1SCc2nc3ccccc3n21` (stereo not drawn), the TGI was > 100 µM with CAKI-1 renal; > 100 µM in the experiment with TK-10 renal; > 100 µM in the experiment on SNB-75 CNS; 47.3 µM with COLO 205 colon; > 100 µM with OVCAR-8 ovarian; > 100 µM in the experiment with ACHN renal. Moreover, the TGI is 55.1 µM with HCT-116 colon and 38 µM in the experiment with LOX IMVI melanoma.
`COC(=O)c1nc(NN)[nH]c(=O)c1CCCCCc1c(C(=O)OC)[nH]c(NN)cc1=O`: the TGI with CAKI-1 renal, in the experiment on TK-10 renal, with SNB-75 CNS, in the experiment with SK-MEL-28 melanoma, in the experiment with COLO 205 colon and with OVCAR-8 ovarian was > 100 µM in each case. The TGI in the experiment with ACHN renal, with HCT-116 colon and in the experiment with LOX IMVI melanoma was > 100 µM in each case.
Turning to `O=C1[C@@H](c2ccc(Cl)cc2)[C@H]2CC=C[C@H]2N1O`, the TGI in the experiment on CAKI-1 renal, in the experiment with TK-10 renal, in the experiment with SNB-75 CNS, with SK-MEL-28 melanoma, with COLO 205 colon and in the experiment on OVCAR-8 ovarian was > 100 µM throughout. Further, in the experiment with LOX IMVI melanoma, the TGI is > 100 µM.
Consider `Cc1cc(Cl)ccc1NC(=O)C(=O)Cc1nc2ccc(C(=O)c3ccccc3)cc2[nH]c1=O`, for which the TGI with CAKI-1 renal, in the experiment on TK-10 renal, in the experiment with SNB-75 CNS, in the experiment on SK-MEL-28 melanoma, in the experiment on COLO 205 colon and in the experiment on OVCAR-8 ovarian was > 100 µM in each case. The TGI in the experiment with ACHN renal, in the experiment on HCT-116 colon and in the experiment with LOX IMVI melanoma was > 100 µM in each case.
As to `C=C(C)C1CC2C(C)=C(OC(C)=O)C1n1c(=O)c3cc4ccccc4cc3c(=O)n12` (stereo not drawn), the TGI in the experiment on CAKI-1 renal was > 100 µM; in the experiment with TK-10 renal, > 100 µM; with SNB-75 CNS, > 85.5 µM; in the experiment on SK-MEL-28 melanoma, > 100 µM; with COLO 205 colon it was > 100 µM; in the experiment with OVCAR-8 ovarian, > 100 µM. In addition, the TGI in the experiment on ACHN renal, in the experiment with HCT-116 colon and with LOX IMVI melanoma was > 100 µM each time.
`CC[O-].CC[O-].O=C1C(=C([O-])c2ccccc2)C(=O)c2ccccc21.O=C1C(=C([O-])c2ccccc2)C(=O)c2ccccc21.[Ti+4]`: the GI50 in the experiment with CAKI-1 renal was 29.6 µM; in the experiment on SNB-75 CNS it was > 100 µM; with SK-MEL-28 melanoma, > 10 µM; with COLO 205 colon, 29.2 µM; with OVCAR-8 ovarian, 92.7 µM; in the experiment on ACHN renal, > 100 µM. Further, the GI50 in the experiment with HCT-116 colon and in the experiment with LOX IMVI melanoma was > 100 µM each time. The TGI with CAKI-1 renal is > 100 µM; in the experiment with SNB-75 CNS it was > 100 µM; in the experiment on SK-MEL-28 melanoma it was > 10 µM; in the experiment with COLO 205 colon, > 100 µM; with OVCAR-8 ovarian it was > 100 µM; with ACHN renal, > 100 µM. The TGI in the experiment on HCT-116 colon and in the experiment with LOX IMVI melanoma was > 100 µM each time.
